Laboratory results reported in PMC9515143, “Phosphorylation of Jhd2 by the Ras-cAMP-PKA(Tpk2) pathway regulates histone modifications and autophagy” (Nature Communications, 2022).

Columns and labels:
COMPASS (Spp1-CBP) = test: In vitro histone methyltransferase (HMT) assay with purified COMPASS; assay type: biochemical, budding yeast (Saccharomyces cerevisiae); conditions: COMPASS (Spp1-CBP) purified from cells grown in 0.05% glucose
Experimental: The HMT reactions were carried out using purified COMPASS (Spp1-CBP) and 15 μg recombinant H3 in 50 μl reaction buffer (50 mM Tris pH 8.5, 20 mM KCl, 10 mM MgCl2, 10 mM 2-mercaptoethanol, 100 μM SAM, 250 mM sucrose, protease inhibitor cocktail) at 30 °C for 0–2 hr. Reactions were quenched by adding 5 × SDS loading buffer and boiled at 95°C for 5 min. Protein was separated on a 10–20% SDS-PAGE gel followed by Western blots with the antibodies indicated.
Supplementary Fi g . […] WT (a) and H2B-F LA G cel ls (b) wer e grown in YPD medium until OD600 of 0.7.
Cells were th en tr eat ed with YP medium supplement ed with differen t concentrations of glucos e for 0.5 hr. C ells were h ar vested an d the ex tract ed histones w er e anal yz ed by Western blots with indicat ed ant ibodies. To d et ect H2B monoubiquitination, H2B-F LAG strain w as used and d et ect ed with anti -F LAG ant ibody. Th e upper bands ar e monoubiquitinat ed H2B-F LAG. c E ff e c t of gl ucose on histone modifications in WT and ubp8∆ ubp10∆ mutant. WT and ubp8∆ ubp10∆ mut ant w er e gro wn in YPD medium unti l OD600 of 0.7. Cells wer e th en treated with YP medium supplem ent ed with di fferent con cen tr ations of gl u cos e fo r 0.5 hr. d Gluco se has no effect on the activit y of C O M PA S S . Spp1-TA P cells wer e grown in YPD medium until OD600 of 1.5. Cells were h arv est ed and then […]

Jhd2 = test: In vitro demethylase assay, Jhd2 purified from cells grown in increasing glucose; assay type: biochemical, budding yeast (Saccharomyces cerevisiae); conditions: Jhd2 from cells grown in 0.05%, 0.5%
Experimental: We also purified unphosphorylated Jhd2 from tpk2Δ mutant (Jhd2 tpk2Δ) and performed in vitro demethylase assay. […] We also treated WT Jhd2 with λ phosphatase to remove its phosphorylation and then used this dephosphorylated Jhd2 for in vitro demethylase assay. […] Furthermore, we purified Jhd2 from cells grown in increasing glucose concentrations (0.05%, 0.5%, 2%) and performed in vitro demethylase assay.
The reaction was quenched by adding 2×SDS-PAGE loading buffer and incubated at 95 °C for 10 min. Samples were spotted to PVDF membrane followed by dot blots with indicated antibodies.

## OC[C@H]1OC(O)[C@H](O)[C@@H](O)[C@@H]1O (some centres unmarked) [glucose]
COMPASS (Spp1-CBP)
  HMT activity of COMPASS: did not affect the HMT activity of COMPASS
Jhd2
  phosphorylation level and demethylase activity of Jhd2 purified from cells in 2% glucose versus 0.05% glucose: higher phosphorylation level but lower demethylase activity
